In series [1] the test system is Influenza A virus. Briefly: Antiviral activity against Influenza A virus (A/Puerto Rico/8/1934(H1N1)) infected in MDCK cells assessed as reduction in virus induced cytopathic effect after infection incubated for 1 hr by MTT assay. Type of series: functional, organism-based.
The nature of series [2]: Selectivity index, ratio of CC50 for MDCK cells to IC50 antiviral activity against Influenza A virus (A/Puerto Rico/8/1934(H1N1)) infected in MDCK cells assessed as reduction in virus induced cytopathic effect pre-treated with virus. The series is classed as toxicity, cell-based. The following applies: dog, read-out: Selectivity Index. Background: Protection from cytopathic effect is a common read-out in antiviral testing.

Series [3] has as its system Influenza A virus. The experiment in a line: Antiviral activity against Influenza A virus (A/Puerto Rico/8/1934(H1N1)) infected in MDCK cells assessed as reduction in virus induced cytopathic effect during infection incubated for 1 hr by MTT assay. The series is classed as functional, organism-based.
Series [4] relates to Influenza A virus. The experiment in a line: Antiviral activity against Influenza A virus (A/Puerto Rico/8/1934(H1N1)) infected in MDCK cells assessed as reduction in virus induced cytopathic effect pretreated with compound incubated for 1 hrs by MTT assay. The series is classed as functional, organism-based.
The subject of series [5] is Influenza A virus. The experiment in a line: Antiviral activity against Influenza A virus (A/Puerto Rico/8/1934(H1N1)) infected in MDCK cells assessed as reduction in virus induced cytopathic effect pre-treated with virus followed by cell infection for 1 hr by MTT assay. The series is classed as functional, organism-based.
Series [6] can be described thus: Cytotoxicity against MDCK cells incubated for 1 hr by MTT assay. Type of series: toxicity, cell-based, Canis lupus familiaris. The following applies: dog. On the technique in general: Tetrazolium dyes change colour on reduction, which living cells bring about.

Our source for the IC50, selectivity ratio and CC50 values is ChEMBL document CHEMBL5131467, “Multivalent peptide dendrimers inhibit the fusion of viral-cellular membranes and the cellular NF-κB signaling pathway” (Eur J Med Chem, 2022).

Where a SMILES comes first, the peptide text is derived from it. Bridges are numbered along the chain shown (N, C = ends). Roman numbers before positions name the chains, in order. Side-chain parts run from the residue outwards. The star is where a group is joined. Phenylacetyl(4-Ph) = O=C(Cc1ccc(-c2ccccc2)cc1)*; Fmoc = O=C(OCC1c2ccccc2-c2ccccc21)*; Palmitoyl = CCCCCCCCCCCCCCCC(=O)*; Lauroyl = CCCCCCCCCCCC(=O)*

Consider `NCCCC[C@H](NC(=O)OCC1c2ccccc2-c2ccccc21)C(=O)N[C@@H](Cc1c[nH]c2ccccc12)C(=O)N[C@@H](CCCCN)C(=O)N[C@@H](CCCCN)C(=O)NCCCC[C@H](NC(=O)[C@H](CCCCN)NC(=O)[C@H](CCCCN)NC(=O)[C@H](Cc1c[nH]c2ccccc12)NC(=O)[C@H](CCCCN)NC(=O)OCC1c2ccccc2-c2ccccc21)C(=O)NCCCC[C@H](NC(=O)[C@H](CCCCNC(=O)[C@H](CCCCN)NC(=O)[C@H](CCCCN)NC(=O)[C@H](Cc1c[nH]c2ccccc12)NC(=O)[C@H](CCCCN)NC(=O)OCC1c2ccccc2-c2ccccc21)NC(=O)[C@H](CCCCN)NC(=O)[C@H](CCCCN)NC(=O)[C@H](Cc1c[nH]c2ccccc12)NC(=O)[C@H](CCCCN)NC(=O)OCC1c2ccccc2-c2ccccc21)C(=O)NCC(=O)O` (I: Fmoc-KWKKK([Lys-Lys-Trp-Lys-Fmoc])KG-OH / II: Fmoc-KWKKK([Lys-Lys-Trp-Lys-Fmoc]); amide I:6-II:C), for which the IC50 in series [1] came out at 5000 nM; in series [3] it was 1160 nM; in series [4], 470 nM; in series [5], 620 nM. Further, in series [2], the selectivity ratio came out at 18.8. Besides, the CC50 at 1 h in series [6] came out at 11700 nM.
With `NCCCC[C@H](NC(=O)[C@H](Cc1c[nH]c2ccccc12)NC(=O)[C@H](CCCCN)NC(=O)[C@@H](N)CCCCN)C(=O)NCCCC[C@H](NC(=O)[C@H](CCCCN)NC(=O)[C@H](Cc1c[nH]c2ccccc12)NC(=O)[C@H](CCCCN)NC(=O)[C@@H](N)CCCCN)C(=O)NCCCC[C@H](NC(=O)[C@H](CCCCNC(=O)[C@H](CCCCN)NC(=O)[C@H](Cc1c[nH]c2ccccc12)NC(=O)[C@H](CCCCN)NC(=O)[C@@H](N)CCCCN)NC(=O)[C@H](CCCCN)NC(=O)[C@H](Cc1c[nH]c2ccccc12)NC(=O)[C@H](CCCCN)NC(=O)[C@@H](N)CCCCN)C(=O)NCC(=O)O` (I: H-KKWKK([Lys-Trp-Lys-Lys])KG-OH / II: H-KKWKK([Lys-Trp-Lys-Lys]); amide I:6-II:C), the concentration for half-maximal inhibition (IC50) in series [3] is more than 5000 nM; in series [4] it was more than 10000 nM; in series [5], more than 5000 nM. The compound also returned a half-maximal cytotoxic concentration (CC50) at 1 h in series [6] of 150000 nM.
On to `CCCCCCCCCCCC(=O)N[C@@H](CCCCN)C(=O)N[C@@H](CCCCN)C(=O)N[C@@H](Cc1c[nH]c2ccccc12)C(=O)N[C@@H](CCCCN)C(=O)NCCCC[C@H](NC(=O)[C@H](CCCCN)NC(=O)[C@H](Cc1c[nH]c2ccccc12)NC(=O)[C@H](CCCCN)NC(=O)[C@H](CCCCN)NC(=O)CCCCCCCCCCC)C(=O)NCCCC[C@H](NC(=O)[C@H](CCCCNC(=O)[C@H](CCCCN)NC(=O)[C@H](Cc1c[nH]c2ccccc12)NC(=O)[C@H](CCCCN)NC(=O)[C@H](CCCCN)NC(=O)CCCCCCCCCCC)NC(=O)[C@H](CCCCN)NC(=O)[C@H](Cc1c[nH]c2ccccc12)NC(=O)[C@H](CCCCN)NC(=O)[C@H](CCCCN)NC(=O)CCCCCCCCCCC)C(=O)NCC(=O)O` (I: Lauroyl-KKWKK([Lys-Trp-Lys-Lys-Lauroyl])KG-OH / II: Lauroyl-KKWKK([Lys-Trp-Lys-Lys-Lauroyl]); amide I:6-II:C), for which the concentration for half-maximal inhibition (IC50) in series [1] was more than 5000 nM; in series [3] it was 430 nM; in series [4] it was 310 nM; in series [5], 280 nM. Moreover, in series [2], the selectivity ratio came out at 19.7. Besides, in series [6], the midpoint of cytotoxicity, the CC50 at 1 h, lay at 5470 nM.
Take `CCCCCCCCCCCCCCCC(=O)N[C@@H](CCCCN)C(=O)N[C@@H](CCCCN)C(=O)N[C@@H](Cc1c[nH]c2ccccc12)C(=O)N[C@@H](CCCCN)C(=O)NCCCC[C@H](NC(=O)[C@H](CCCCN)NC(=O)[C@H](Cc1c[nH]c2ccccc12)NC(=O)[C@H](CCCCN)NC(=O)[C@H](CCCCN)NC(=O)CCCCCCCCCCCCCCC)C(=O)NCCCC[C@H](NC(=O)[C@H](CCCCNC(=O)[C@H](CCCCN)NC(=O)[C@H](Cc1c[nH]c2ccccc12)NC(=O)[C@H](CCCCN)NC(=O)[C@H](CCCCN)NC(=O)CCCCCCCCCCCCCCC)NC(=O)[C@H](CCCCN)NC(=O)[C@H](Cc1c[nH]c2ccccc12)NC(=O)[C@H](CCCCN)NC(=O)[C@H](CCCCN)NC(=O)CCCCCCCCCCCCCCC)C(=O)NCC(=O)O` (I: Palmitoyl-KKWKK([Lys-Trp-Lys-Lys-Palmitoyl])KG-OH / II: Palmitoyl-KKWKK([Lys-Trp-Lys-Lys-Palmitoyl]); amide I:6-II:C): the IC50 in series [1] was more than 5000 nM; in series [3], 130 nM; in series [4] it was 140 nM; in series [5], 100 nM. For the same compound, half-maximal cytotoxicity in series [6] (CC50 at 1 h) was put at 1580 nM.
The matching figures for `CCCCCCCCCCCCCCCC(=O)N[C@@H](CCCCN)C(=O)N[C@@H](Cc1c[nH]c2ccccc12)C(=O)N[C@@H](CCCCN)C(=O)N[C@@H](CCCCN)C(=O)NCCCC[C@H](NC(=O)[C@H](CCCCN)NC(=O)[C@H](CCCCN)NC(=O)[C@H](Cc1c[nH]c2ccccc12)NC(=O)[C@H](CCCCN)NC(=O)CCCCCCCCCCCCCCC)C(=O)NCCCC[C@H](NC(=O)[C@H](CCCCNC(=O)[C@H](CCCCN)NC(=O)[C@H](CCCCN)NC(=O)[C@H](Cc1c[nH]c2ccccc12)NC(=O)[C@H](CCCCN)NC(=O)CCCCCCCCCCCCCCC)NC(=O)[C@H](CCCCN)NC(=O)[C@H](CCCCN)NC(=O)[C@H](Cc1c[nH]c2ccccc12)NC(=O)[C@H](CCCCN)NC(=O)CCCCCCCCCCCCCCC)C(=O)NCC(=O)O` (I: Palmitoyl-KWKKK([Lys-Lys-Trp-Lys-Palmitoyl])KG-OH / II: Palmitoyl-KWKKK([Lys-Lys-Trp-Lys-Palmitoyl]); amide I:6-II:C): more than 5000 nM, 170 nM, 170 nM, 190 nM and 670 nM.
For the compound `NCCCC[C@H](NC(=O)Cc1ccc(-c2ccccc2)cc1)C(=O)N[C@@H](CCCCN)C(=O)N[C@@H](Cc1c[nH]c2ccccc12)C(=O)N[C@@H](CCCCN)C(=O)NCCCC[C@H](NC(=O)[C@H](CCCCN)NC(=O)[C@H](Cc1c[nH]c2ccccc12)NC(=O)[C@H](CCCCN)NC(=O)[C@H](CCCCN)NC(=O)Cc1ccc(-c2ccccc2)cc1)C(=O)NCCCC[C@H](NC(=O)[C@H](CCCCNC(=O)[C@H](CCCCN)NC(=O)[C@H](Cc1c[nH]c2ccccc12)NC(=O)[C@H](CCCCN)NC(=O)[C@H](CCCCN)NC(=O)Cc1ccc(-c2ccccc2)cc1)NC(=O)[C@H](CCCCN)NC(=O)[C@H](Cc1c[nH]c2ccccc12)NC(=O)[C@H](CCCCN)NC(=O)[C@H](CCCCN)NC(=O)Cc1ccc(-c2ccccc2)cc1)C(=O)NCC(=O)O` (I: {Phenylacetyl(4-Ph)}-KKWKK([Lys-Trp-Lys-Lys-Phenylacetyl(4-Ph)])KG-OH / II: {Phenylacetyl(4-Ph)}-KKWKK([Lys-Trp-Lys-Lys-Phenylacetyl(4-Ph)]); amide I:6-II:C), the selectivity ratio in series [2] is 103. The IC50 was 200 nM in series [3], 170 nM in series [4] and 190 nM in series [5]. It took 19300 nM to reach half-maximal cytotoxicity in series [6] (CC50 at 1 h).

A word on the IC50: it is the concentration needed to halve the response being measured. A word on the CC50: it is the concentration that lowers cell viability or growth by half. Read a high CC50 as better tolerance by the cells.
